Test results published in patent EP3928779A1 (Chugai Seiyaku Kabushiki Kaisha, priority 2014, dated 2016).

System: rat small-intestinal brush border membrane vesicles
Experiment: Inhibitory effect on 33PO4 uptake into rat small-intestinal brush border membrane vesicles (rapid filtration method)
Assay type: biochemical
Conditions: 33PO4 uptake into rat small-intestinal BBMVs; test compound 1 µM; reacted for 60 seconds
Summary of the method: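 Uptake of ^33PO4 was measured by rapid filtration and liquid scintillation counting of filter-retained vesicles, after quenching with ice-cold 110 mM NaCl/1 mM KH2PO4/10 mM HEPES pH 7.5. Vesicles were brush border membranes from the upper small intestine of female Wistar rats aged 4–5 weeks.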

| Compound | Rate of uptake inhibition (%) (1 µM) |
| --- | --- |
| CN1N(Cc2cccc(F)c2F)C(=O)C(C(=O)Nc2ccc(C(F)(F)F)nc2-c2cncc(C(F)(F)F)c2)=C(O)C1(C)C [Example 306] | 58 |
| COCCN(C)CCOCCOCCOCCOCCOc1ccc(CN2C(=O)C(C(=O)Nc3ccc(C(F)(F)F)cc3-c3cc(C(F)(F)F)ncn3)=C(O)C3(CCCC3)N2C)c(F)c1F [Example 432] | 11 |
| C[C@]12CCCN1N(Cc1cccc(F)c1F)C(=O)C(C(=O)Nc1ccc(C(F)(F)F)cc1-c1cnc(C#N)c([N+](=O)[O-])c1)=C2O [Example 99, (4aR)-N-[2-(6-Cyano-5-nitropyridin-3-yl)-4-(trifluoromethyl)phenyl]-1-[(2,3-difluorophenyl)methyl]-4-hydroxy-4a-methyl-2-oxo-6,7-dihydro-5H-pyrrolo[1,2-b]pyridazine-3-carboxamide] | 82 |
| C[C@]12CCCN1N(Cc1ccc(C#CCOCCCCO)c(F)c1F)C(=O)C(C(=O)Nc1ccc(C(F)(F)F)cc1-c1ccc(C(F)(F)F)nc1)=C2O [Example 128] | 72 |
| (4aR)-1-[(2,3-Difluorophenyl)methyl]-4a-ethyl-4-hydroxy- N-[5-methyl-2-(trifluoromethyl)furan-3-yl]-2-oxo-6,7-dihydro-5H-pyrrolo[1,2-b]pyridazine-3-carboxamide [Example 10] | 37 |
| COC(=O)CN(C)CCOc1ccc(CN2C(=O)C(C(=O)Nc3ccc(C(F)(F)F)cc3-c3cc(C(F)(F)F)ncn3)=C(O)C3(CCC3)N2C)c(F)c1F [Example 346] | 42 |
| CN1N(Cc2ccc(C#CCN3CCOCC3)c(F)c2F)C(=O)C(C(=O)Nc2ccc(C(F)(F)F)cc2-c2cc(C(F)(F)F)ncn2)=C(O)C1(C)C [Example 315, 2-[[2,3-Difluoro-4-(3-morpholin-4-ylprop-1-ynil)phenyl]methyl]-5-hydroxy-1,6,6-trimethyl-3-oxo-N-[4-(trifluoromethyl)-2-[6-(trifluoromethyl)pyrimidin-4-yl]phenyl]pyridazine-4-carboxamide] | 63 |
| (4aS)-1-[(2,3-Difluorophenyl)methyl]-6,6-difluoro-4-hydroxy-N-[5-methyl-2-(trifluoromethyl)furan-3-yl]-2-oxo-5,7-dihydro-4aH-pyrrolo[1,2-b]pyridazine-3-carboxamide [Example 5] | 54 |
| COCCN1CCN(CCOc2ccc(CN3C(=O)C(C(=O)Nc4ccc(C(F)(F)F)cc4-c4cc(C(F)(F)F)ncn4)=C(O)C4(CCCC4)N3C)c(F)c2F)CC1 [Example 377] | 29 |
| COCCN(C)CCN(c1ccc(CN2C(=O)C(C(=O)Nc3ccc(C(F)(F)F)cc3-c3cc(C(F)(F)F)ncn3)=C(O)C3(CCCC3)N2C)c(F)c1F)C(C)C [Example 445] | 29 |
| 1-[(2,3-Difluorophenyl)methyl]-4a-ethyl-4-hydroxy-N-[5-methyl-2-(trifluoromethyl)furan-3-yl]-2-oxo-5,6,7,8-tetrahydropyrido[1,2-b]pyridazine-3-carboxamide [Example 19] | 41 |
| C[C@]12CCCN1N(Cc1cccc(OC(F)(F)F)c1)C(=O)C(C(=O)Nc1ccc(C(F)(F)F)cc1-c1cc(C(F)(F)F)ncn1)=C2O [Example 189] | 73 |
| CN1N(Cc2ccc(OCCNC(CC(=O)O)CC(=O)O)c(F)c2F)C(=O)C(C(=O)Nc2ccc(C(F)(F)F)cc2-c2cc(C(F)(F)F)ncn2)=C(O)C12CCCC2 [Example 382, 3-[2-[2.3-Difluoro-4-[[10-hydroxy-6-methyl-8-oxo-9-[[4-(trifluoromethyl)-2-[6-(trifluoromethyl)pyrimidin-4-yl]phenyl]carbamoyl]-6,7-diazaspiro[4.5]dee-9-en-7-yl)methyl]phenoxy]ethylamino]pentanedioate] | 21 |
| CN1[C@@H](C(C)(C)C)C(O)=C(C(=O)Nc2cc(F)c(Br)c(F)c2)C(=O)N1Cc1cccc(F)c1F [Example 240] | 72 |
| CC(C)[C@H]1C(O)=C(C(=O)Nc2ccc(C(F)(F)F)cc2-c2ccc(C(F)(F)F)nc2)C(=O)N(Cc2ccc(OCCN3CCOCC3)c(F)c2F)N1C [Example 280] | 50 |
| CN(CCOc1ccc(CN2C(=O)C(C(=O)Nc3ccc(C(F)(F)F)cc3-c3cc(C(F)(F)F)ncn3)=C(O)C3(CCC3)N2C)c(F)c1F)C1COC1 [Example 402, 6-(2,3-Difluoro-4-(2-(methyl(oxetan-3-yl)amino)ethoxy)benzyl)-9-hydroxy-5-methyl-7-oxo-N-(4-(trifluoromethyl)-2-(6-(trifluoromethyl)pyrimidin-4-yl)phenyl)-5,6-diazaspiro[3.5]non-8-ene-8-carboxamide] | 54 |
| CN1N(Cc2ccc(OCCCOC[C@H](O)CO)c(F)c2F)C(=O)C(C(=O)Nc2ccc(C(F)(F)F)cc2-c2ccc(C(F)(F)F)nc2)=C(O)C12CCC2 [Example 383] | 26 |

| Compound | Rate of uptake inhibition (%) (1 µM) |
| --- | --- |
| CN1N(Cc2ccc(OCCN3CCC(N4CCOCC4)CC3)c(F)c2F)C(=O)C(C(=O)Nc2ccc(C(F)(F)F)cc2-c2cc(C(F)(F)F)ncn2)=C(O)C12CCC2 [Example 358] | 34 |
| Cc1cc(NC(=O)C2=C(O)[C@@H]3CCC(C)(C)N3N(Cc3cccc(F)c3)C2=O)c(C(F)(F)F)o1 [Example 4, (4aS)-1-[(3-Fluorophenyl)methyl]-4-hydroxy-7,7-dimethyl-N-[5-methyl-2-(trifluoromethyl)furan-3-yl]-2-oxo-5.6-dihydro-4aH-pyrrolo[1,2-b]pyridazine-3-carboxamide] | 32 |
| COC(=O)c1cccc(CN2C(=O)C(C(=O)Nc3ccc(C(F)(F)F)cc3-c3cc(C(F)(F)F)ncn3)=C(O)[C@@]3(C)CCCN23)c1 [Example 183] | 82 |
| CN1N(Cc2ccc(OCCCCCOC[C@H](O)CO)c(F)c2F)C(=O)C(C(=O)Nc2ccc(C(F)(F)F)cc2-c2ccc(C(F)(F)F)nc2)=C(O)C12CCCC2 [Example 388] | 15 |
| CN1N(Cc2ccc(OCCN3CCOCC3)c(F)c2F)C(=O)C(C(=O)Nc2ccc(C(F)(F)F)cc2-c2ccc(C(F)(F)F)nc2)=C(O)C12CCCC2 [Example 287] | 47 |
| CN1N(Cc2ccc(OCCOCCNCC(O)CO)c(F)c2F)C(=O)C(C(=O)Nc2ccc(C(F)(F)F)cc2-c2cc(C(F)(F)F)ncn2)=C(O)C12CCCC2 (stereo not shown) [Example 419, 7-[[4-[2-[2-(2,3-Dihydroxypropylamino)ethoxy]ethoxy]-2,3-difluorophenyl]methyl]-10-hydroxy-6-methyl-8-oxo-N-[4-(trifluoromethyl)-2-[6-(trifluoromethyl)pyrimidin-4-yl]phenyl]-6,7-diazaspiro[4.5]dec-9-ene-9-carboxamide] | 22 |
| COc1ncc(-c2cc(C(F)(F)F)ccc2NC(=O)C2=C(O)[C@@]3(C)CCCN3N(Cc3cccc(F)c3F)C2=O)c(OC)n1 [Example 72] | 92 |
| CC(C)[C@H]1C(O)=C(C(=O)Nc2ccc(Cl)cc2-c2ccc(C(F)(F)F)nc2)C(=O)N(Cc2ccc(OCCN3CCOCC3)c(F)c2F)N1C [Example 281] | 41 |
| CN1CCN(CCOc2ccc(CN3C(=O)C(C(=O)Nc4ccc(C(F)(F)F)cc4-c4cc(C(F)(F)F)ncn4)=C(O)C4(CCC4)N3C)c(F)c2F)CC1=O [Example 359] | 37 |
| CN1N(Cc2ccc(OCCN3[C@@H]4COC[C@H]3C4)c(F)c2F)C(=O)C(C(=O)Nc2ccc(C(F)(F)F)cc2-c2cc(C(F)(F)F)ncn2)=C(O)C12CCCC2 [Example 380] | 43 |
| COC(=O)CN(C)c1ncc(-c2cc(C(F)(F)F)ccc2NC(=O)C2=C(O)[C@@]3(C)CCCN3N(Cc3cccc(F)c3F)C2=O)cc1C#N [Example 112, Methyl 2-[[5-[2-[[(4aR)-1-[(2,3-difluorophenyl)methyl]-4-hydroxy-4a-methyl-2-oxo-6,7-dihydro-5H-pyrrolo[1,2-b]pyridazine-3-carbonyl]aminol-5-(trifluoromethyl)phenyl]-3-cyanopyridin-2-yl-methylamino] acetate] | 43 |
| C[C@]12CCCN1N(Cc1cccc([N+](=O)[O-])c1)C(=O)C(C(=O)Nc1ccc(Br)c(F)c1)=C2O [Example 27] | 76 |
| CCCCCN1C(=O)C(C(=O)Nc2ccc(C(F)(F)F)cc2-c2ccc(C(F)(F)F)nc2)=C(O)[C@@]2(C)CCCN12 [Example 26] | 72 |
| C[C@]12CCCN1N(Cc1cccc(F)c1F)C(=O)C(C(=O)Nc1ccc(Br)cc1)=C2O [Example 77] | 80 |
| C[C@]12CCCN1N(Cc1ccc(OCCCCCO)c(F)c1F)C(=O)C(C(=O)Nc1ccc(C(F)(F)F)cc1-c1cc(C(F)(F)F)ncn1)=C2O [Example 162] | 73 |
| CN1N(Cc2ccc(NCCN3CCOCC3)c(F)c2F)C(=O)C(C(=O)Nc2ccc(C(F)(F)F)cc2-c2cc(C(F)(F)F)ncn2)=C(O)C12CCCC2 [Example 447] | 50 |
| CN(CCOc1ccc(CN2C(=O)C(C(=O)Nc3ccc(C(F)(F)F)cc3-c3cc(C(F)(F)F)ncn3)=C(O)C3(CCCC3)N2C)c(F)c1F)C1COC1 [Example 412, 7-(2,3-Difluoro-4-(2-(methyl(oxetan-3-yl)amino)ethoxy)benzyl)-10-hydroxy-6-methyl-8-oxo-N-(4-(trifluoromethyl)-2-(6-(trifluoromethyl)pyrimidin-4-yl)phenyl)-6,7-diazaspiro[4.5]dec-9-ene-9-carboxamide] | 52 |
